{"source": "patent US7883889B2", "about": "“Antigen presenting cells, method for their preparation and their use for cancer vaccines” (priority 2001, dated 2011)", "key": {"[1]": {"system": "normal and malignant lymphoid cells", "details": "Shichijo S. et al Jpn. J. Cancer Res. 87, 751-756, 1996; cited from earlier work"}, "[2]": {"system": "PHA+PWM-activated PBMC", "assay": "RT-PCR analysis of CTA expressed by ADHAPI-Cells/PHA+PWM-PBMC and control PHA+PWM-PBMC", "assay_type": "cell-based, human", "details": "5-AZA-CdR: four pulses of 1 μM every 12 h, then 48 h culture (= ADHAPI-Cells/PHA+PWM-PBMC)", "experimental": "(§1) Experimental conditions and primers utilized to assess CTA expression on investigated cells were as follows:\nPBMC (1.5×10^6 cells/ml) were added with PHA-M (10 μg/ml), PWM (3 μg/ml), 100 UI/ml rhIL-2 and cultured for 48 h at 37° C. in a 5% CO2 humidified atmosphere in Basal Iscove's medium supplemented with 10% heat-inactivated human AB serum (or with 10% heat-inactivated autologous serum), 2 mM L-glutamine, 100 U/ml penicillin, 100 μg/ml streptomycin sulphate (complete medium).\nPHA+PWM-activated PBMC were pulsed four times with 1 μM 5-aza-2′-deoxycytidine (5-AZA-CdR) every 12 h; then, half of the culture medium was replaced with fresh complete medium without PHA or PWM and cultures were allowed to proceed for additional 48 h. Then cells were utilized for experimental procedures and/or frozen under viable conditions. Control cells (PHA+PWM-PBMC) were cultured under similar experimental conditions but without pulses of 5-AZA-CdR."}, "[3]": {"system": "PWM-activated PBMC", "assay": "RT-PCR analysis of CTA expressed by ADHAPI-Cells/PWM-PBMC and control PWM-PBMC cells", "assay_type": "cell-based, human", "details": "5-AZA-CdR: four pulses of 1 μM every 12 h, then 48 h culture (= ADHAPI-Cells/PWM-PBMC)", "experimental": "as §1\nPBMC (1.5×10^6 cells/ml) were added with PWM (3 μg/ml) and cultured for 48 h at 37° C. in a 5% CO2 humidified atmosphere in Basal Iscove's medium supplemented with 10% heat-inactivated human AB serum, 2 mM L-glutamine, 100 U/ml penicillin, 100 μg/ml streptomycin sulphate.\nPWM-activated PBMC were pulsed four times with 1 μM 5-aza-2′-deoxycytidine (5-AZA-CdR) every 12 h; then, half of the culture medium was replaced with fresh medium and cultures were allowed to proceed for additional 48 h. Then cells were utilized for experimental procedures and/or frozen under viable conditions. Control cells (PWM-PBMC) were cultured under similar experimental conditions but without pulses of 5-AZA-CdR."}, "[4]": {"system": "PWM-activated B-Lymphocytes", "assay": "RT-PCR analysis of CTA expressed by ADHAPI-Cells/PWM-B and control PWM-B cells", "assay_type": "cell-based, human", "details": "5-AZA-CdR: four pulses of 1 μM every 12 h, then 48 h culture (= ADHAPI-Cells/PWM-B)", "experimental": "as §1\nPurified B-Lymphocytes (1.5×10^6 cells/ml) were added with PWM (3 μg/ml) and cultured for 48 h at 37° C. in a 5% CO2 humidified atmosphere in Basal Iscove's medium supplemented with 10% heat-inactivated human AB serum, 2 mM L-glutamine, 100 U/ml penicillin, 100 μg/ml streptomycin sulphate.\nPWM-activated B-Lymphocytes were pulsed four times with 1 μM 5-aza-2′-deoxycytidine (5-AZA-CdR) every 12 h; then, half of the culture medium was replaced with fresh medium and cultures were allowed to proceed for additional 48 h. Then cells were utilized for experimental procedures and/or frozen under viable conditions. Control cells (PWM-B) were cultured under similar experimental conditions but without pulses of 5-AZA-CdR."}, "[5]": {"system": "B-EBV+ lymphoblastoid cell lines", "assay": "RT-PCR analysis of CTA expressed by ADHAPI-Cells/B-EBV and control B-EBV cells", "assay_type": "cell-based, human", "details": "5-AZA-CdR: four pulses of 1 μM every 12 h, then 48 h culture (= ADHAPI-Cells/B-EBV)", "experimental": "B-EBV+ lymphoblastoid cell lines (7.5×10^5 cells/ml) were cultured in RPMI 1640 medium supplemented with 10% heat-inactivated foetal calf serum (or 10% heat-inactivated human AB serum) and 2 mM L-glutamine at 37° C. in a 5% CO2 humidified atmosphere, and pulsed four times with 1 μM 5-aza-2′-deoxycytidine (5-AZA-CdR) every 12 h; then, half of the culture medium was replaced with fresh medium and cultures were allowed to proceed for additional 48 h. Then cells were utilized for experimental procedures and/or frozen under viable conditions. Control cells (B-EBV cells) were cultured under similar experimental conditions but without pulses of 5-AZA-CdR.\nExperimental conditions and primers utilized to assess CTA expression on investigated cells were as follows: […]"}, "[6]": {"system": "PHA-activated PBMC", "assay": "RT-PCR analysis of CTA expressed by ADHAPI-Cells/PHA-PBMC and control PHA-PBMC", "assay_type": "cell-based, human", "details": "5-AZA-CdR: four pulses of 1 μM every 12 h, then 48 h culture (= ADHAPI-Cells/PHA-PBMC)", "experimental": "as §1\nPBMC (1.5×10^6 cells/ml) were added with PHA-M (10 μg/ml) and 100 UI/ml rhIL-2, and cultured for 48 h at 37° C. in a 5% CO2 humidified atmosphere in RPMI 1640 medium supplemented with 10% heat-inactivated foetal calf serum (or in Basal Iscove's medium supplemented with 10% heat-inactivated human AB serum), 2 mM L-glutamine, 100 U/ml penicillin, 100 μg/ml streptomycin sulphate (complete medium).\nPHA-activated PBMC were pulsed four times with 1 μM 5-aza-2′-deoxycytidine (5-AZA-CdR) every 12 h; then, half of the culture medium was replaced with fresh complete medium without PHA-M and cultures were allowed to proceed for additional 48 h. Then cells were utilized for experimental procedures and/or frozen under viable conditions. Control cells (PHA-PBMC) were cultured under similar experimental conditions but without pulses of 5-AZA-CdR."}, "[7]": {"system": "NIH3T3-CD40L-activated PBMC", "assay": "RT-PCR analysis of CTA expressed by ADHAPI-Cells/CD40L-B and control CD40L-B cells", "assay_type": "cell-based, human", "details": "5-AZA-CdR: four pulses of 1 μM every 12 h, restimulation with NIH3T3-CD40L, then 48 h (= ADHAPI-Cells/CD40L-B)", "experimental": "as §1\nPBMC (2×10^6 cells/ml) were co-cultured with semiconfluent, x-ray treated (75 Gy) NIH3T3-CD40L at 37° C. in a 5% CO2 humidified atmosphere, in Basal Iscove's medium supplemented with 10% heat-inactivated human AB serum, 2 mM L-glutamine, 2 ng/ml recombinant human (rh) interleukin 4 (rhIL-4), 50 μg/ml human transferrin, 5 μg/ml rh insulin, 5.5×10^−7 M cyclosporin A (CsA), 100 U/ml penicillin, and 100 μg/ml streptomycin sulphate (complete medium). After six days of incubation, PBMC were collected, washed twice with HBSS, resuspended at 1×10^6 cells/ml in complete medium and co-cultured for additional 3 days at 37° C. in a 5% CO2 humidified atmosphere with NIH3T3-CD40L freshly prepared as described above. This procedure was repeated every 2-3 days to a maximum culture time of 16-18 days.\nAfter 16-18 days of culture, activated PBMC were harvested and restimulated with NIH3T3-CD40L as described above; after an O/N incubation at 37° C. in a 5% CO2 humidified atmosphere, cultures were pulsed four times with 1 μM 5-aza-2′-deoxycytidine (5-AZA-CdR) every 12 h; then, cells were harvested and restimulated with NIH3T3-CD40L as described above and cultures were allowed to proceed for additional 48 h. Then cells were utilized for experimental procedures and/or frozen under viable conditions. Control cells (CD40L-B cells) were cultured under similar experimental conditions but without pulses of 5-AZA-CdR."}}}
{"smiles": "Nc1ncn([C@H]2C[C@H](O)[C@@H](CO)O2)c(=O)n1", "note": "[5-AZA-CdR, 5-aza-2′-deoxycytidine]", "values": [{"measurement": "induction of MAGE 1, 2, 3 and 6", "setting": "[1]", "result": "induction of investigated CTA in selected samples tested"}, {"measurement": "GAGE-1-6 expression (RT-PCR)", "setting": "[2]", "result": "7/7"}, {"measurement": "MAGE-1 expression (RT-PCR)", "setting": "[2]", "result": "7/7"}, {"measurement": "MAGE-2 expression (RT-PCR)", "setting": "[2]", "result": "7/7"}, {"measurement": "MAGE-3 expression (RT-PCR)", "setting": "[2]", "result": "7/7"}, {"measurement": "MAGE-4 expression (RT-PCR)", "setting": "[2]", "result": "7/7"}, {"measurement": "NY-ESO-1 expression (RT-PCR)", "setting": "[2]", "result": "7/7"}, {"measurement": "SSX-2 expression (RT-PCR)", "setting": "[2]", "result": "7/7"}, {"measurement": "GAGE-1-6 expression (RT-PCR)", "setting": "[3]", "result": "3/4"}, {"measurement": "MAGE-1 expression (RT-PCR)", "setting": "[3]", "result": "4/4"}, {"measurement": "MAGE-2 expression (RT-PCR)", "setting": "[3]", "result": "3/4"}, {"measurement": "MAGE-3 expression (RT-PCR)", "setting": "[3]", "result": "4/4"}, {"measurement": "MAGE-4 expression (RT-PCR)", "setting": "[3]", "result": "3/4"}, {"measurement": "NY-ESO-1 expression (RT-PCR)", "setting": "[3]", "result": "4/4"}, {"measurement": "SSX-2 expression (RT-PCR)", "setting": "[3]", "result": "3/4"}, {"measurement": "GAGE-1-6 expression (RT-PCR)", "setting": "[4]", "result": "4/4"}, {"measurement": "MAGE-1 expression (RT-PCR)", "setting": "[4]", "result": "4/4"}, {"measurement": "MAGE-2 expression (RT-PCR)", "setting": "[4]", "result": "4/4"}, {"measurement": "MAGE-3 expression (RT-PCR)", "setting": "[4]", "result": "4/4"}, {"measurement": "MAGE-4 expression (RT-PCR)", "setting": "[4]", "result": "4/4"}, {"measurement": "NY-ESO-1 expression (RT-PCR)", "setting": "[4]", "result": "4/4"}, {"measurement": "SSX-2 expression (RT-PCR)", "setting": "[4]", "result": "4/4"}, {"measurement": "GAGE-1-6 expression (RT-PCR)", "setting": "[5]", "result": "4/4"}, {"measurement": "MAGE-1 expression (RT-PCR)", "setting": "[5]", "result": "4/4"}, {"measurement": "MAGE-3 expression (RT-PCR)", "setting": "[5]", "result": "4/4"}, {"measurement": "NY-ESO-1 expression (RT-PCR)", "setting": "[5]", "result": "4/4"}, {"measurement": "SSX-2 expression (RT-PCR)", "setting": "[5]", "result": "4/4"}, {"measurement": "GAGE-1-6 expression (RT-PCR)", "setting": "[6]", "result": "4/4"}, {"measurement": "MAGE-1 expression (RT-PCR)", "setting": "[6]", "result": "12/12"}, {"measurement": "MAGE-2 expression (RT-PCR)", "setting": "[6]", "result": "3/3"}, {"measurement": "MAGE-3 expression (RT-PCR)", "setting": "[6]", "result": "12/12"}, {"measurement": "MAGE-4 expression (RT-PCR)", "setting": "[6]", "result": "4/4"}, {"measurement": "NY-ESO-1 expression (RT-PCR)", "setting": "[6]", "result": "6/6"}, {"measurement": "SSX-2 expression (RT-PCR)", "setting": "[6]", "result": "6/6"}, {"measurement": "GAGE-1-6 expression (RT-PCR)", "setting": "[7]", "result": "14/14"}, {"measurement": "MAGE-1 expression (RT-PCR)", "setting": "[7]", "result": "10/10"}, {"measurement": "MAGE-2 expression (RT-PCR)", "setting": "[7]", "result": "9/10"}, {"measurement": "MAGE-3 expression (RT-PCR)", "setting": "[7]", "result": "10/11"}, {"measurement": "MAGE-4 expression (RT-PCR)", "setting": "[7]", "result": "11/11"}, {"measurement": "NY-ESO-1 expression (RT-PCR)", "setting": "[7]", "result": "14/14"}, {"measurement": "SSX-2 expression (RT-PCR)", "setting": "[7]", "result": "13/14"}]}
